Test results from patent publication US20260191853A1, “METHOD OF TREATING DRUG-INDUCED BRADYARRHYTHMIA” (OSAKA UNIVERSITY, priority 2022, published 2026).

What was measured:
Hartley guinea pigs = assay: Termination effect on siponimod-induced bradyarrhythmia in isoflurane-anesthetized guinea pig model; format: in vivo
Excerpt: Hartley guinea pigs (7 to 10 weeks old, male, available from Japan SLC, Inc.) were subjected to anesthetic induction by inhalation of isoflurane (available from Pfizer Japan Inc.), and each animal was held on an operating table having a heater function. The trachea was incised, and a tracheal cannula (KN-375, available from Natsume Seisakusho Co., Ltd.) was inserted. The tracheal cannula was connected to a ventilator (SN-480-7, available from Shinano Seisakusho Co., Ltd.), and artificial respiration was controlled by supplying 100% oxygen at a volume of 10 mL and a ventilation rate of 60 times/minute. Isoflurane (available from Pfizer Japan Inc.) anesthesia (about 1 to 4%, carrier gas: 100% oxygen) was used for maintenance of anesthesia. A catheter (BD intramedic polyethylene tubing PE50, available from Becton, Dickinson and Company) charged with 50 units/mL heparin (available from AY PHARMACEUTICALS CO., LTD.) was inserted into each of the carotid artery and the jugular vein and placed in the blood vessel. Systemic blood pressure was measured with a high-sensitivity DC amplifier (AD-611J, available from NIHON KOHDEN CORPORATION) via the catheter placed in the carotid artery. Electrodes were attached to the body surface, and a body surface electrocardiogram was measured with a high-sensitivity amplifier (AB-611J, available from NIHON KOHDEN CORPORATION). Blood pressure and electrocardiogram data were acquired and analyzed with PowerLab/Labchart system (available from ADInstruments). After stabilization of each parameter, siponimod (available from Nissan Chemical Corporation) was continuously administered intravenously at 0.01 mg/kg for 10 minutes via the catheter placed in the jugular vein, followed by observation of the presence or absence of atrioventricular block. The solvent used was a solution prepared by mixing of Polyethylene Glycol 400 (available from KANTO CHEMICAL CO., INC.) and dimethyl sulfoxide (available from FUJIFILM Wako Pure Chemical Corporation) at 9: 1 (volume ratio). […] Data were recorded and blood was collected 10, 20, and 30 minutes after initiation of administration of compound (I) dihydrochloride and at the time of termination of atrioventricular block. […] Data were analyzed for the presence or absence of the termination, the time required for the termination, and the plasma concentration of compound (I) at the time of termination. […] After thawing of the plasma, plasma drug concentrations were measured using LC/MS/MS after deproteinization with acetonitrile. […]

[1] = system: human iPS cell-derived atrial myocytes; assay: Siponimod-induced decrease in beating rate in human iPS cell-derived atrial myocytes (multi-electrode array); format: cell-based; conditions: 0.1 μM compound (I) added after 0.1 μM siponimod, observed 10 minutes; FIG. 6
Method: Cryopreserved human iPS cell-derived atrial myocytes (Human iPSC-derived atrial cardiomyocytes, available from Axol Bioscience) were thawed and seeded at 1,400,000 cells/well on a fibronectin-coated 6-well plate, followed by culturing in an incubator at 37° C. and 5% CO2 for 11 days. During the culture, the entire amount of medium was changed every other day. After the elapse of 11 days, human iPS cell-derived atrial myocytes that started beating were removed from the plate and recovered with TrypLE Select Enzyme (available from ThermoFisher Scientific). The atrial myocytes were seeded at 25,000 cells/2 μL on a fibronectin-coated 6-well MEA Chip (60-6well MEA200/30iR-Ti-tcr, available from Multi Channel Systems) and cultured in an incubator at 37° C. and 5% CO2 for one hour. Thereafter, 400 μL of medium was added and cultured in an incubator at 37° C. and 5% CO2 for 13 days. During the culture, a half amount of the medium was changed every other day. After the elapse of […], the MEA Chip was set in a multi-electrode array system (MEA2100, available from Multi Channel Systems) to thereby obtain extracellular potentials under spontaneous beating. […] Data were analyzed with Labchart System (available from ADInstruments).
In FIG. 6, the measurements are shown as mean±standard error, and (I) denotes compound (I).

In the case of `Cc1cc(CO)nc2cc3c(cc12)OC(C)(C)[C@H](O)[C@H]3NCCc1ccccc1` [Compound (I), (3R,4S)-7-Hydroxymethyl-2,2,9-trimethyl-4-(phenethylamino)-3,4-dihydro-2H-pyrano[2,3-g]quinoline-3-ol], the “siponimod-induced bradyarrhythmia (atrioventricular block) termination” value (Hartley guinea pigs; compound (I) dihydrochloride 0.1 mg/kg continuous i.v.) is reported as “completely terminated”, the “Compound (I) concentration at the time of termination” value (Hartley guinea pigs; plasma, siponimod-induced block, 0.1 mg/kg continuous i.v. for 30 minutes, mean±standard error) is reported as 22.7 ± 3.1 ng/mL and the “Number of cases where atrioventricular block was terminated” value (Hartley guinea pigs; siponimod-induced block, compound (I) dihydrochloride 0.1 mg/kg continuous i.v. for 30 minutes) is reported as 5/5. The “Time required for the termination of atrioventricular block” value (Hartley guinea pigs; siponimod-induced block, compound (I) dihydrochloride 0.1 mg/kg continuous i.v. for 30 minutes, mean±standard error) was 638 ± 75 s and the “effect on siponimod-induced decrease in beating rate” value [1] was “increased the beating rate and improved bradyarrhythmia”.
